Experimental data reported in US20060115815A1 (priority 2002, published 2006).
Read-outs that look alike come from different tables or passages of the source.

Columns and labels:
[1] = test system: PBMC in intact human whole blood
30N82I88D = assay: microbe, parasite or virus in culture; assay type: cell-based, HIV-1; conditions: Human immunodeficiency virus 1, read-out: Cell-based assay (MT-4) EC50 30N82I88D
48V54V82S = assay: microbe, parasite or virus in culture; parameters: species or system HIV-1; conditions: Human immunodeficiency virus 1, read-out: Cell-based assay (MT-4) EC50 48V54V82S
48V82A90M = assay: microbe, parasite or virus in culture; parameters: species or system HIV-1; conditions: Human immunodeficiency virus 1, read-out: Cell-based assay (MT-4) EC50 48V82A90M
[2] = test system: recombinant HIV-1 strain, protease 10F/46I/71V/82T/90M
[3] = test system: recombinant HIV-1 strain, protease 10R/46I/82T/84V
[4] = test system: recombinant HIV-1 strain, protease 10I/84V/71V/73S/90M
[5] = test system: recombinant HIV-1 strains with resistance mutations in the protease gene; assay: Cross-resistance profile assay, whole panel of mutant viruses; assay type: cell-based
[6] = test system: recombinant HIV-1 strain, protease 10I/48V/71V/82A/90M
[7] = test system: recombinant HIV-1 strain, protease 46I/84A
[8] = test system: recombinant HIV-1 strain, protease 48V/54V/71V/82S
[9] = test system: recombinant HIV-1 strain, protease 46I/47V/50V
WT HIV-1 = assay: microbe, parasite or virus in culture; assay type: cell-based; conditions: Human immunodeficiency virus 1, read-out: EC50 [nM] WT HIV-1
GS-7340 Ester Hydrolase = biological target: T1, GS-7340 Ester Hydrolase (Homo sapiens, UniProt P10619); assay: biochemical
T1 construct: from tissue; host or cells: human peripheral blood mononuclear cells (extract and column pools)
T1 sequence (P10619 29-326 limits assumed): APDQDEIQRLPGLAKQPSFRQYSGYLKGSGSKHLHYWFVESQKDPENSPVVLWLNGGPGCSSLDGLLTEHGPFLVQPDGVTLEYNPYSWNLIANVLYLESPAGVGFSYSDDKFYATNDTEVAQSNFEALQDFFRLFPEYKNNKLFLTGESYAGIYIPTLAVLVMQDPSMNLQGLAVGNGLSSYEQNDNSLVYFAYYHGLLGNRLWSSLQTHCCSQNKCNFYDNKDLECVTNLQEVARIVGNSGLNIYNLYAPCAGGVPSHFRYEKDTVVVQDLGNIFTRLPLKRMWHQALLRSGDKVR
T1 sequence (P10619 327-480 limits assumed): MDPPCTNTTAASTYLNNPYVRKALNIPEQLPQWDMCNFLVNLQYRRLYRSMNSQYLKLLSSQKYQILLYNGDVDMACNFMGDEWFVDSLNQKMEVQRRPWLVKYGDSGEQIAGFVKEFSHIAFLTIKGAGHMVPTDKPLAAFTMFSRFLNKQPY

in vitro = conditions: human
[10] = biological target: recombinant HIV-1 protease (Human immunodeficiency virus type 1 group M subtype B, UniProt P04585); assay: biochemical; assay type: biochemical; conditions: Ki (pM), class symbols, Table 10
[11] = biological target: porcine liver carboxylesterase (PLCE) (Sus scrofa, UniProt Q29550); assay: biochemical; conditions: read-out: Relative Activity (%)
Chain of porcine liver carboxylesterase (PLCE) (Q29550 19-566): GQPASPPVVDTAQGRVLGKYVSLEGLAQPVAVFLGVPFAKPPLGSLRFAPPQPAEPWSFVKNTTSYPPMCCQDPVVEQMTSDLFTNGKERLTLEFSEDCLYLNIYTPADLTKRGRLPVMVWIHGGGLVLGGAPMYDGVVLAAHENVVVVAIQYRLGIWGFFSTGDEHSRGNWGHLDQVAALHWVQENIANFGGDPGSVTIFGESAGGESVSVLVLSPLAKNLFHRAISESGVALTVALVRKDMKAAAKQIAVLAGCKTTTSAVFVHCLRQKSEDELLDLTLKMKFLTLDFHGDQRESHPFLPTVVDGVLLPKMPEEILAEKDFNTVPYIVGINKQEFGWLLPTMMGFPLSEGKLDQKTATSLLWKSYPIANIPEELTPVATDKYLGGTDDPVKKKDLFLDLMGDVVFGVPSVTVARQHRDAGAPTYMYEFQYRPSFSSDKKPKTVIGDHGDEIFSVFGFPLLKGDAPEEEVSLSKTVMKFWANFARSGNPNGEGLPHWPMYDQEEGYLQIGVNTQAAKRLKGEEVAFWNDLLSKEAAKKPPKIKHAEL

[12] = biological target: human leukocyte elastase (huLE) (Homo sapiens, UniProt P08246); conditions: 10 µM
Chain of human leukocyte elastase (huLE) (P08246 30-267): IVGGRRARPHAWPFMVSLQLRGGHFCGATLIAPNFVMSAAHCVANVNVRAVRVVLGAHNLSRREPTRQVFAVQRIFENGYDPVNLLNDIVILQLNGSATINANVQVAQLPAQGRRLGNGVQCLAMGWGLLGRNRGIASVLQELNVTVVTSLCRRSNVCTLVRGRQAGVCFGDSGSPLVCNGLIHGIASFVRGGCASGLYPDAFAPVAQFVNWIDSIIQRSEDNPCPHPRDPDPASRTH

84V90M [13] = biological target: T2, 84V90M (Human immunodeficiency virus type 1 group M subtype B, UniProt P04585, I572V/L578M); assay: cell-based; parameters: species or system HIV-1
48V54V82A = assay: microbe, parasite or virus in culture; assay type: cell-based, HIV-1; conditions: Human immunodeficiency virus 1, read-out: Cell-based assay (MT-4) EC50 48V54V82A
46I50V = assay: microbe, parasite or virus in culture; assay type: cell-based, HIV-1; conditions: Human immunodeficiency virus 1, read-out: Cell-based assay (MT-4) EC50 46I50V
[14] = test system: recombinant HIV-1 strain, protease 10I/48V/54V/82A
[15] = test system: recombinant HIV-1 strain, protease 30N/50S/82I/88D
[16] = test system: mutant HIV-1 with I84V/L90M mutations in the protease gene; assay type: cell-based; conditions: fold difference in EC50, mutant vs. wild type
[17] = test system: recombinant HIV-1 strain, protease 54V/71V/82S
84V90M [18] = biological target: T2, 84V90M; assay: biochemical; parameters: species or system HIV-1
WT = assay: microbe, parasite or virus in culture; assay type: cell-based, HIV-1; conditions: Human immunodeficiency virus 1, read-out: Cell-based assay (MT-4) EC50 WT

## CCOC(=O)C(C)OP(=O)(COc1ccc(C[C@H](NC(=O)O[C@H]2CO[C@H]3OCC[C@H]32)[C@H](O)CN(CC(C)C)S(=O)(=O)c2ccc(OC)cc2)cc1)Oc1ccccc1 (some centres unmarked) [GS-17394]
Quiescent PBMC
  Cell-Associated PI, pmol/mln cells: Prodrug: 0 pmol/mln cells
MT-2 cells
  Metabolism (conversion to acid metabolites), increase at 1 μM vs. 10 μM: independent
[1]
  Intracellular Acid Metabolite Concentration: 629 ± 303 µM
  Intracellular Prodrug Concentration: 69 ± 85 µM
  Intracellular Prodrug and Metabolites Concentration, uM: Acid Metabolite: 629 ± 303 µM
  Intracellular Prodrug and Metabolites Concentration: Prodrug: 69 ± 85 µM
  Intracellular Prodrug and Metabolites Concentration: Total: 698 ± 301 µM

## CCOP(=O)(COc1ccc(CC2C(O)C(O)C(Cc3ccc(OC)cc3)N(Cc3ccc(O)cc3)C(=O)N2Cc2ccc(O)cc2)cc1)OCC (centres unmarked) [OCH3, Ph-pOH, OCH2PO3Et2]
30N82I88D
  EC50: 23 nM
48V54V82S
  EC50: 106 nM
48V82A90M
  EC50: 48 nM

## Cc1cccc(C)c1OCC(=O)N[C@@H](Cc1ccccc1)[C@@H](O)C[C@H](Cc1ccccc1)NC(=O)[C@H](C(C)C)N1CCCNC1=O [Lopinavir]
[2]
  Fold Change in EC50 Relative to WT HIV-1: 7.5
[3]
  Fold Change in EC50 Relative to WT HIV-1: 11
[4]
  Fold Change in EC50 Relative to WT HIV-1: 11
[5]; {}
  Total No. of Resistant Viruses: 6
[6]
  Fold Change in EC50 Relative to WT HIV-1: 4.5
[7]
  Fold Change in EC50 Relative to WT HIV-1: 9
[8]
  Fold Change in EC50 Relative to WT HIV-1: 60
[9]
  Fold Change in EC50 Relative to WT HIV-1: 19
WT HIV-1
  EC50: 8 nM

## O=c1oc(Cl)c(Cl)c2ccccc12 [3,4-DCI, 3,4 dichloroisocoumarin, reference compound]
GS-7340 Ester Hydrolase
  IC50: 4 µM

## CCOC(=O)C(C)OP(=O)(COc1ccc(CC(NC(=O)OC2COC3OCCC23)C(O)CN(CC(C)C)S(=O)(=O)c2ccc(OC)cc2)cc1)Oc1ccccc1 (centres unmarked) [drawing 658 R1=OPh R2=Lac-Et]
In vitro
  CC50 at 5 days: 5000 to 50000 nM
[10]
  Ki: 10 to 100 pM

## O=c1oc(Cl)c(Cl)c2ccccc12 [3,4-dichloroisocoumarin]
[11]
  activity at 1 µM: 100%
  activity at 10 µM: 100%
  activity at 100 µM: 90%
  activity at 1000 µM: 20%
GS-7340 Ester Hydrolase; read-out: IC50 (μM) GS-7340 Ester Hydrolase
  IC50: 4 µM
[12]
  Relative Activity (%): 25%

## CCCCOC(=O)C(C)NP(=O)(COc1ccc(CC(NC(=O)OC2COC3OCCC23)C(O)CN(CC(C)C)S(=O)(=O)c2ccc(OC)cc2)cc1)NC(C)C(=O)OCCCC (centres unmarked) [GS-16503]
[5]; of 11 mutant viruses, resistance = 5-fold and higher change in EC50 relative to wild-type
  Total No. of Resistant Viruses: 0
Quiescent PBMC
  Cell-Associated PI, pmol/mln cells: Prodrug: 0 pmol/mln cells
MT-2 cells
  Metabolism (conversion to acid metabolites), increase at 1 μM vs. 10 μM: 3 fold
[1]
  Intracellular Acid Metabolite Concentration: 279 ± 47 µM
  Intracellular Prodrug Concentration: 61 ± 40 µM
  Intracellular Prodrug and Metabolites Concentration, uM: Acid Metabolite: 279 ± 47 µM
  Intracellular Prodrug and Metabolites Concentration: Prodrug: 61 ± 40 µM
  Intracellular Prodrug and Metabolites Concentration: Total: 340 ± 35 µM

## CCOP(=O)(COc1ccc(CC2C(O)C(O)C(Cc3ccc(OC)cc3)N(Cc3cccnc3)C(=O)N2Cc2cccnc2)cc1)OCC (centres unmarked) [OCH3, m-pyridine, OCH2PO3Et2]
30N82I88D
  EC50: 106 nM
84V90M [13]
  EC50: 765 nM
48V54V82A
  EC50: 1020 nM
48V54V82S
  EC50: 970 nM
46I50V
  EC50: 352 nM
48V82A90M
  EC50: 480 nM

## CCC[C@@]1(CCc2ccccc2)CC(O)=C([C@H](CC)c2cccc(NS(=O)(=O)c3ccc(C(F)(F)F)cn3)c2)C(=O)O1 [Tipranavir]
[2]
  Fold Change in EC50 Relative to WT HIV-1: 3
[3]
  Fold Change in EC50 Relative to WT HIV-1: 5
[5]; {}
  Total No. of Resistant Viruses: 1
[6]
  Fold Change in EC50 Relative to WT HIV-1: 0.3
[7]
  Fold Change in EC50 Relative to WT HIV-1: 1
[8]
  Fold Change in EC50 Relative to WT HIV-1: 2
[14]
  Fold Change in EC50 Relative to WT HIV-1: 0.4
[9]
  Fold Change in EC50 Relative to WT HIV-1: 0.5
[15]
  Fold Change in EC50 Relative to WT HIV-1: 0.5
[16]
  I84V/L90M fold change: + (>3 to ≦10)
WT HIV-1
  EC50: 80 nM
[17]
  Fold Change in EC50 Relative to WT HIV-1: 3.5

## CCCCN1C(=O)N(Cc2ccc3[nH]nc(N)c3c2)C(Cc2ccccc2)C(O)C(O)C1Cc1ccccc1 (centres unmarked) [CH3 (DMP-851)]
30N82I88D
  EC50: 69 nM
84V90M [13]
  EC50: 918 nM
48V54V82A
  EC50: 33 nM
48V54V82S
  EC50: 30 nM
84V90M [18]
  IC50: 9.4 nM
46I50V
  EC50: 17 nM
WT
  EC50: 54 nM
48V82A90M
  EC50: 22 nM
